Experimental findings from patent US9593123B2, “Triazolo[4,5-D]pyrimidine derivatives” (Hoffmann-La Roche Inc., priority 2013, dated 2017) are described below.

The target of one experiment is human CB2 receptor (Homo sapiens (Human), UniProt P34972). Nature of the experiment: cAMP assay, CHO cells expressing human CB2 receptors. The experiment is classed as cell-based. The conditions noted are these: functional cAMP assay, read-out: CB2 hcAMP EC50. As for the experimental part:
(§1) CHO cells expressing human CB1 or CB2 receptors are seeded 17-24 hours prior to the experiment 50.000 cells per well in a black 96 well plate with flat clear bottom (Corning Costar #3904) in DMEM (Invitrogen No. 31331), 1×HT supplement, with 10% fetal calf serum and incubated at 5% CO2 and 37° C. in a humidified incubator. The growth medium was exchanged with Krebs Ringer Bicarbonate buffer with 1 mM IBMX and incubated at 30° C. for 30 min. Compounds were added to a final assay volume of 100 μl and incubated for 30 min at 30° C. Using the cAMP-Nano-TRF detection kit the assay (Roche Diagnostics) was stopped by the addition of 50 μl lysis reagent (Tris, NaCl, 1.5% Triton X100, 2.5% NP40, 10% NaN3) and 50 μl detection solutions (20 μM mAb Alexa700-cAMP 1:1, and 48 μM Ruthenium-2-AHA-cAMP) and shaken for 2 h at room temperature. The time-resolved energy transfer is measured by a TRF reader (Evotec Technologies GmbH), equipped with a ND:YAG laser as excitation source. The plate is measured twice with the excitation at 355 nm and at the emission with a delay of 100 ns and a gate of 100 ns, total exposure time 10 s at 730 (bandwidth 30 nm) or 645 nm (bandwidth 75 nm), respectively. The FRET signal is calculated as follows: FRET=T730-Alexa730-P(T645-B645) with P=Ru730-B730/Ru645-B645, where T730 is the test well measured at 730 nM, T645 is the test well measured at 645 nm, B730 and B645 are the buffer controls at 730 nm and 645 nm, respectively. cAMP content is determined from the function of a standard curve spanning from 10 μM to 0.13 nM cAMP.
(§2) EC50 values were determined using Activity Base analysis (ID Business Solution, Limited). The EC50 values for a wide range of cannabinoid agonists generated from this assay were in agreement with the values published in the scientific literature.
In general terms: Changes in cAMP serve as a functional read-out for many G protein-coupled receptors.

The next experiment deals with human CB1 receptor (Homo sapiens (Human), UniProt P21554). Nature of the experiment: cAMP assay, CHO cells expressing human CB1 receptors. The conditions noted are these: functional cAMP assay, read-out: CB1 hcAMP EC50. The format is cell-based. As for the experimental part:
as §1, §2

Where only a bound is given, the exact number is not on record here.

human CB1 receptor, sequence (P21554 whole entry): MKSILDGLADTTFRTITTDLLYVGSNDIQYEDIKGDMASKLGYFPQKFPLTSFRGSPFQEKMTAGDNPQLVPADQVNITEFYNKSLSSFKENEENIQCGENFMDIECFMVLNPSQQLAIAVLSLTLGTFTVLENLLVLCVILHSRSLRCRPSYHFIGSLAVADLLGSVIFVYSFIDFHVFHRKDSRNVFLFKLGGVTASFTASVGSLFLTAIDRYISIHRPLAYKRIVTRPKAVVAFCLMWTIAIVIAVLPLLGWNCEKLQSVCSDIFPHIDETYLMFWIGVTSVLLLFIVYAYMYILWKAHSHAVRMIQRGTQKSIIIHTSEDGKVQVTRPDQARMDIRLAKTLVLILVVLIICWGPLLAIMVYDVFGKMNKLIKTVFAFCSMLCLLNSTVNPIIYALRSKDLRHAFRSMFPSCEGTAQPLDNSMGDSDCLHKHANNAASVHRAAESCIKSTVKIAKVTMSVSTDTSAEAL
human CB2 receptor, sequence (P34972 whole entry): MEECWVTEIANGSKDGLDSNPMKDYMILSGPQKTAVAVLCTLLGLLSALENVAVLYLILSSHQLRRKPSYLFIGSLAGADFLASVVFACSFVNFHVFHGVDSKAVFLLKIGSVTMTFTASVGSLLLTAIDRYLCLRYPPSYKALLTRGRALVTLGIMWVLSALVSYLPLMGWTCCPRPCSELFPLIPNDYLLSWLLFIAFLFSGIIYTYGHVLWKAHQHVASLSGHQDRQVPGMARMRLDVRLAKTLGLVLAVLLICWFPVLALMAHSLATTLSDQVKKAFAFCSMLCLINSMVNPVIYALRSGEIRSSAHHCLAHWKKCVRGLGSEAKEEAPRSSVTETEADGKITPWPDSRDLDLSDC

For the compound `CC(O)CS(=O)(=O)c1nc(N2CCC(F)(F)C2)c2nnn(Cc3ccccc3Cl)c2n1` (centres unmarked) [Example 95, 1-[3-[(2-Chlorophenyl)methyl]-7-(3,3-difluoropyrrolidin-1-yl)triazolo[4,5-d]pyrimidin-5-yl]sulfonylpropan-2-ol], the EC50 at human CB2 receptor is 64.4 nM; on human CB1 receptor, over 10 µM.
For `O=S(=O)(Cc1ccccc1)c1nc(N2CCC(F)(F)C2)c2nnn(Cc3ccccc3Cl)c2n1` [Example 87, 5-Benzylsulfonyl-3-[(2-chlorophenyl)methyl]-7-(3,3-difluoropyrrolidin-1-yl)triazolo [4,5-d]pyrimidine], the EC50 on human CB2 receptor was 83 nM; on human CB1 receptor, over 10 µM.
Turning to `CC(C)S(=O)(=O)c1nc(N2CCC(F)(F)C2)c2nnn(Cc3ccccc3Cl)c2n1` [Example 88, 3-[(2-Chlorophenyl)methyl]-7-(3,3-difluoropyrrolidin-1-yl)-5-propan-2-ylsulfonyltriazolo[4,5-d]pyrimidine], the values for the EC50 at human CB2 receptor and at human CB1 receptor were 1.7 nM and over 10 µM, respectively.
Consider `CCCCOc1nc(N2CCC(F)(F)C2)c2nnn(Cc3ccccc3Cl)c2n1` [Example 45, 5-Butoxy-3-[(2-chlorophenyl)methyl]-7-(3,3-difluoropyrrolidin-1-yl)triazolo[4,5-d]pyrimidine], for which the values for the EC50 at human CB2 receptor and at human CB1 receptor were 1.2 nM and over 10 µM, respectively.
In the same order, the values of `Cc1nonc1Cn1nnc2c(N3CCC(F)(F)C3)nc(C3CC3)nc21` [Example 5, 3-[[5-Cyclopropyl-7-(3,3-difluoropyrrolidin-1-yl)triazolo[4,5-d]pyrimidin-3-yl]methyl]-4-methyl-1,2,5-oxadiazole] are 1 nM and over 10 µM.
In the case of `CCSc1nc(N2CCC(F)(F)C2)c2nnn(Cc3ccccc3Cl)c2n1` [Example 82, 3-[(2-Chlorophenyl)methyl]-7-(3,3-difluoropyrrolidin-1-yl)-5-ethylsulfanyltriazolo [4,5-d]pyrimidine], the EC50 on human CB2 receptor amounted to 0.7 nM; at human CB1 receptor, 0.183 µM.
As for `FC1(F)CCN(c2nc(N3CCCC3)nc3c2nnn3Cc2ccccc2Cl)C1` [Example 10, 3-[(2-Chlorophenyl)methyl]-7-(3,3-difluoropyrrolidin-1-yl)-5-pyrrolidin-1-yltriazolo[4,5-d]pyrimidine], the EC50 on human CB2 receptor is 2.9 nM; on human CB1 receptor, 0.217 µM.
For the compound `CC(C)CS(=O)(=O)c1nc(N2CCC(F)(F)C2)c2nnn(Cc3ccccc3Cl)c2n1` [Example 94, 3-[(2-Chlorophenyl)methyl]-7-(3,3-difluoropyrrolidin-1-yl)-5-(2-methylpropylsulfonyl)triazolo[4,5-d]pyrimidine], the EC50 on human CB2 receptor is 2.8 nM; at human CB1 receptor, over 10 µM.
For the compound `CCCCS(=O)(=O)c1nc(N2CCC(F)(F)C2)c2nnn(Cc3ccccc3Cl)c2n1` [Example 93, 5-Butylsulfonyl-3-[(2-chlorophenyl)methyl]-7-(3,3-difluoropyrrolidin-1-yl)triazolo [4,5-d]pyrimidine], the EC50 at human CB2 receptor is 8.8 nM; at human CB1 receptor it was over 10 µM.
In the case of `CN(c1nc(N2CCC(F)(F)C2)c2nnn(Cc3ccccc3Cl)c2n1)C(C)(C)C` [Example 15, N-tert-Butyl-3-[(2-chlorophenyl)methyl]-7-(3,3-difluoropyrrolidin-1-yl)-N-methyltriazolo[4,5-d]pyrimidin-5-amine], the EC50 on human CB2 receptor was 2.2 nM; at human CB1 receptor, 0.336 µM.
With `CC(=O)N[C@H]1CCN(c2nc(NC(C)(C)C)nc3c2nnn3Cc2ncccc2Cl)C1` [Example 27, N-[(3S)-1-[5-(tert-Butylamino)-3-[(3-chloropyridin-2-yl)methyl]triazolo[4,5-d]pyrimidin-7-yl]pyrrolidin-3-yl]acetamide], the EC50 at human CB2 receptor was 267 nM; at human CB1 receptor it was over 10 µM.
With `CC(C)c1nc(N2CCC(F)(F)C2)c2nnn(Cc3ccccc3Cl)c2n1` [Example 3, 3-[(2-Chlorophenyl)methyl]-7-(3,3-difluoropyrrolidin-1-yl)-5-isopropyl-triazolo[4,5-d]pyrimidine], the EC50 is 0.5 nM on human CB2 receptor and 0.77 µM at human CB1 receptor.
For `COc1ccc(Cn2nnc3c(N4CC[C@H](NC(C)=O)C4)nc(NC(C)(C)C)nc32)cc1` [Example 21, N-[(3S)-1-[5-(tert-Butylamino)-3-[(4-methoxyphenyl)methyl]triazolo[4,5-d]pyrimidin-7-yl]pyrrolidin-3-yl]acetamide], in that order: 141 nM and over 10 µM.
As to `C[C@]1(O)CCN(c2nc(N3CCOCC3)nc3c2nnn3Cc2ccccc2C(F)(F)F)C1` [Example 33, (3S)-3-Methyl-1-[5-morpholin-4-yl-3-[[2-(trifluoromethyl)phenyl]methyl]triazolo[4,5-d]pyrimidin-7-yl]pyrrolidin-3-ol], the figures for the EC50 at human CB2 receptor and on human CB1 receptor were 7.2 nM and over 10 µM, respectively.
Consider `CC(C)(C)COc1nc(N2CCC(F)(F)C2)c2nnn(Cc3ccccc3Cl)c2n1` [Example 52, 3-[(2-Chlorophenyl)methyl]-7-(3,3-difluoropyrrolidin-1-yl)-5-(2,2-dimethylpropoxy) triazolo[4,5-d]pyrimidine], for which the EC50 at human CB2 receptor was 0.8 nM; on human CB1 receptor, over 10 µM.
`CCCOc1nc(N2CCC(F)(F)C2)c2nnn(Cc3ccccc3Cl)c2n1` [Example 59, 3-[(2-Chlorophenyl)methyl]-7-(3,3-difluoropyrrolidin-1-yl)-5-propoxytriazolo[4,5-d]pyrimidine]: the EC50 at human CB2 receptor is 0.9 nM; on human CB1 receptor, over 10 µM.
For `Cc1nonc1Cn1nnc2c(N3CCC(F)(F)C3)nc(O[C@@H](C)C(F)(F)F)nc21` [Example 74, 3-[[7-(3,3-Difluoropyrrolidin-1-yl)-5-[(2S)-1,1,1-trifluoropropan-2-yl]oxytriazolo[4,5-d]pyrimidin-3-yl]methyl]-4-methyl-1,2,5-oxadiazole], in that order: 1.8 nM and over 10 µM.
For the compound `FC1(F)CCN(c2nc(OC3COC3)nc3c2nnn3Cc2ccccc2Cl)C1` [Example 49, 3-[(2-Chlorophenyl)methyl]-7-(3,3-difluoropyrrolidin-1-yl)-5-(oxetan-3-yloxy)triazolo [4,5-d]pyrimidine], the EC50 on human CB2 receptor was 21.9 nM; at human CB1 receptor, over 10 µM.
As to `CC(C)Sc1nc(N2CCC(F)(F)C2)c2nnn(Cc3ccccc3Cl)c2n1` [Example 84, 3-[(2-Chlorophenyl)methyl]-7-(3,3-difluoropyrrolidin-1-yl)-5-propan-2-ylsulfanyltriazolo[4,5-d]pyrimidine], the EC50 on human CB2 receptor was 2.3 nM; on human CB1 receptor, 0.08 µM.
Turning to `CC(C)(C)Nc1nc(N2CCC(F)(F)C2)c2nnn(Cc3ccccc3S(C)(=O)=O)c2n1` [Example 23, N-tert-Butyl-7-(3,3-difluoropyrrolidin-1-yl)-3-[(2-methylsulfonylphenyl)methyl]triazolo[4,5-d]pyrimidin-5-amine], the EC50 on human CB2 receptor worked out at 1.1 nM; on human CB1 receptor it was 0.487 µM.
As for `CCCCSc1nc(N2CCC(F)(F)C2)c2nnn(Cc3ccccc3Cl)c2n1` [Example 91, 5-Butylsulfanyl-3-[(2-chlorophenyl)methyl]-7-(3,3-difluoropyrrolidin-1-yl)triazolo [4,5-d]pyrimidine], the EC50 is 6.9 nM on human CB2 receptor and over 10 µM at human CB1 receptor.
In the same order, the values of `Cn1nnnc1Cn1nnc2c(N3CCC(F)(F)C3)nc(NC(C)(C)C)nc21` [Example 25, N-tert-Butyl-7-(3,3-difluoropyrrolidin-1-yl)-3-[(1-methyltetrazol-5-yl)methyl]triazolo [4,5-d]pyrimidin-5-amine] are 7.5 nM and over 10 µM.
As for `CC1(COc2nc(N3CCC(F)(F)C3)c3nnn(Cc4ccccc4Cl)c3n2)COC1` [Example 50, 3-[(2-Chlorophenyl)methyl]-7-(3,3-difluoropyrrolidin-1-yl)-5-[(3-methyloxetan-3-yl)methoxy]triazolo[4,5-d]pyrimidine], the EC50 is 2.8 nM at human CB2 receptor and over 10 µM at human CB1 receptor.
Take `CC(O)CSc1nc(N2CCC(F)(F)C2)c2nnn(Cc3ccccc3Cl)c2n1` (centres unmarked) [Example 90, 1-[3-[(2-Chlorophenyl)methyl]-7-(3,3-difluoropyrrolidin-1-yl)triazolo[4,5-d]pyrimidin-5-yl]sulfanylpropan-2-ol]: the concentration giving a half-maximal response (EC50) on human CB2 receptor was 15.6 nM; at human CB1 receptor, over 10 µM.
For `FC(F)(F)CSc1nc(N2CCC(F)(F)C2)c2nnn(Cc3ccccc3Cl)c2n1` [Example 83, 3-[(2-Chlorophenyl)methyl]-7-(3,3-difluoropyrrolidin-1-yl)-5-(2,2,2-trifluoroethylsulfanyl)triazolo[4,5-d]pyrimidine], in that order: 1.9 nM and over 10 µM.

As usually defined, the EC50 is the concentration at which the effect is half-maximal.
